Measurements as given in patent US20190350907A1, “METHODS AND PHARMACEUTICAL COMPOSITIONS FOR REDUCING CD95- MEDIATED CELL MOTILITY” (INSERM (INSTITUT NATIONAL DE LA SANTÉ ET DE LA RECHERCHE …, priority 2017, published 2019).
Like-named read-outs stand apart in the source and are kept apart here.

How the values were obtained:
CD95/PLCγ1 interaction = target: T1, CD95/PLCγ1 interaction (Homo sapiens, UniProt P19174); assay: Renilla luciferase protein-fragment complementation assay (PCA), CD95-CID/PLCγ1-SH3; assay type: cell-based; details: for effect on interaction of CD95 with PLCγ1: result in words
T1 construct: The PLCγ1-SH3 domain (aa 790-851) (C); expressed in transfected cells; host or cells: HEK293T
T1 sequence (P19174 790-851): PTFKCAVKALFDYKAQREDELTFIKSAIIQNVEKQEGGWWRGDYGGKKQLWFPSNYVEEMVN
Description: FIG. 1. […] A. Schematic representation of the protein-fragment complementation assay used with CD95-CID or -DD fused to F2 and PLCγ1-SH3 or FADD-DD fused to F1 to identify inhibitors from the Prestwick library. The Renilla luciferase enzyme was divided into amino-terminal and carboxy-terminal fragments (yellow domains) and fused to the indicated domains. B. Compounds from the Prestwick library were tested against CD95/PLCγ1 or CD95/FADD PCA. […] Inhibition of CD95/FADD interaction is also assessed.
Light emission indicates refolding of the luciferase and reconstitution of enzyme activity through protein/protein interactions. […] Data represent means±SD of three independent experiments. […] Then, the indicated peptides fused with or without the cell-penetrating domain TAT were incubated at the indicated concentrations for 4 hrs and luminescence was assessed. Data represent means±SD of three independent experiments. […].
HEK293T cells were electroporated with 5 μg of DNA using BTM-830 electroporation generator (BTX Instrument Division, Harvard Apparatus) with 10 μg of DNA. Transfected cells were cultured for 24 hrs prior to protein complementation assay analyses as previously described (17). Briefly, transfected cells (10^6) were washed, resuspended in 100 μl PBS and deposited in OptiPlate-96 (PerkinElmer, Waltham, Mass., USA). Coelenterazine-h (5 μM, Sigma) was injected to each well and renilla luciferase activity was monitored for the first 10 seconds using Infinite200Pro (Tecan, Männedorf, Switzerland).
A peptide consisting of the cell-penetrating domain of TAT fused to CID (TAT-CID) binds the SH3 domain of PLCγ1 and thereby, prevents PLCγ1/CD95 interaction and the subsequent induction of the Ca^2+ response (16). […] Briefly, the Renilla luciferase enzyme was divided into two fragments (F1 and F2 fragments). […] Interaction of CD95 with PLCγ1 or FADD allows the reconstitution of RLuc and subsequent light emission (FIG. 1A). The chemical Prestwick library was screened against these PCAs (FIG. 1B). […] These molecules are designated CID inhibitors or CIDINH.

activated PBLs = assay: CD95-mediated cell migration / endothelial transmigration of activated PBLs (Boyden chamber); assay type: cell-based, human; details: result in words
Description: FIG. 3. Drugs inhibit CD95-mediated Ca′ response and cell migration. A. Activated PBLs were loaded with FuraPE3-AM (1 μM) and pre-treated for 1 h with non-toxic concentrations of indicated compounds. T-cells were then stimulated with cl-CD95L (100 ng/mL; arrow). Ratio values (R) were normalized to pre-stimulated values (R0) to yield R/R0 values. Data represent means±the SD. B. Left panel: using Boyden chamber assay, cell migration of parental H9 cells and their counterpart lacking CD95 (CD95-KO) was assessed. Right panel: activated PBLs were pre-incubated in the presence or absence of the indicated drugs for 1 hour using non-toxic concentration and the CD95-mediated cell migration was assessed by Boyden chambers. C. Th17 cells were sorted from blood of healthy donors (peripheral blood mononuclear cell). FACS analyses showing the efficiency of Th17 (CCR6^+ CXCR3^−) cell sorting from healthy donors PBMCs. D. Th17 cells were pre-incubated in the presence or absence of the indicated drugs for 1 hour using non-toxic concentration and cell migration was assessed by Boyden chambers. After membrane hydration of Boyden chambers (Millipore, Molsheim, France) containing 8 μm pore membranes, 10^5 cells were added to the top chamber. The bottom chamber was filled with low serum (1%)-containing medium in the presence or absence of cl-CD95L (100 ng/ml). Cells were incubated for 24 h. To quantify invasion, cells were fixed with methanol and stained with Giemsa. Stained cells were then removed from the top-side of the membrane using a cotton-tipped swab and five representative pictures for each insert were taken of the invading cells from the reverse side. For each experiment, invading cells were lysed and absorbance at 560 nm was measured. Membranes (3 μm pore size) of a Boyden chamber were hydrated in sterile D-PBS (Millipore, Molsheim, France). Thereafter, activated T-lymphocytes (10^6) were added to the top chamber on a confluent monolayer of HUVEC in a low serum (1%)-containing medium. The bottom chamber was filled with low serum (1%)-containing medium in presence or absence of 100 ng/ml of cl-CD95L. In experiments using human sera, 500 μl of serum from either healthy donors or SLE patients was added to the lower chamber. Cells were cultured for 24 h at 37° C. in a 5% CO2, humidified incubator. Transmigrated cells were counted in the lower reservoir by flow cytometry using a standard of 2.5×10^4 fluorescent beads (Flow-count, Beckman Coulter).

[1] = tested on: CD95-mediated Ca2+ signaling pathway in Th17 cells; assay: CD95-mediated Ca2+ response in Th17 cells; assay type: cell-based, human; details: drugs 1 μM for 1 h, s-CD95L 100 ng/mL, Fluo2 LR-AM
Description: A. Activated PBLs were loaded with FuraPE3-AM (1 μM) and pre-treated for 1 h with non-toxic concentrations of indicated compounds. T-cells were then stimulated with thapsigargin (1 μM; arrow). Ratio values (R) were normalized to pre-stimulated values (R0) to yield R/R0 values. Data represent means±the SD. B. Th17 cells were sorted from healthy donors and loaded with FuraPE3-AM (1 μM). Th17 cells were pre-treated for 1 h with non-toxic concentrations of ritonavir or diflunisal (1 μM). T-cells were then stimulated with cl-CD95L (100 ng/mL; arrow). Ratio values (R) were normalized to pre-stimulated values (R0) to yield R/R0 values. Data represent means±the SD.
Human PBLs were sorted using flow cytometry cell sorting to isolate Th17 (A) according to their phenotype (CD3+CD4+CXCR5−CCR6+CXCR3−CD45RA−) and Tfh (B) (CD4+CXCR5+ICOS+PD−1+CD45RA−). Cells were pre-incubated with Indicated drugs (1 μM) for 1 h and then stimulated with 100 ng/mL of s-CD95L. [Ca2+]CYT was assessed in Fluo2 LR-AM (3 μM)-loaded cells. Data represent means±the SD of 3 independent experiments.
Peripheral blood mononuclear cells (PBMC) were isolated from buffy-coat by density gradient using lymphocyte separation medium (Eurobio, Les Ulis, France). PBMCs were then subjected to selection using a cocktail of antibody-coated magnetic beads: CCR6^+ CXCR3^−CD4^+ cells (Th17 cells) were sorted with Human Th17 Enrichment kit (STEMCELL Technologies, Grenoble, France). Cell sorting efficiency was evaluated by FACS.
T-cells were loaded with Fura-PE3-AM (1 μM) at room temperature for 30 min in Hank's Balanced Salt Solution (HBSS). After washing, the cells were incubated for 15 min in the absence of Fura-PE3-AM to complete de-esterification of the dye. Cells were placed in a temperature controlled chamber (37° C.) of an inverted epifluorescence microscope (Olympus IX70) equipped with an x40 UApo/340-1.15 W water-immersion objective (Olympus), and fluorescence micrograph images were captured at 510 nm and 12-bit resolution by a fast-scan camera (CoolSNAP fx Monochrome, Photometrics). To minimize UV light exposure, a 4×4 binning function was used. Fura-PE3 was alternately excited at 340 and 380 nm, and the ratios of the resulting images (emission filter at 520 nm) were produced at constant intervals (10 seconds). The Fura-PE3 ratio (Fratio 340/380) images were analyzed offline with Universal Imaging software, including Metafluor and Metamorph. Fratio reflects the intracellular Ca^2+ concentration changes. Each experiment was repeated at least 3 times, and the average of more than 20 single-cell traces per experiment was analyzed.

[2] = tested on: CD95-mediated Ca2+ signaling pathway in Tfh cells; assay: CD95-mediated Ca2+ response in Tfh cells; assay type: cell-based, human; details: drugs 1 μM for 1 h, s-CD95L 100 ng/mL, Fluo2 LR-AM
[3] = target: T2, PLCγ1-SH3 domain (aa 790-851) fused to F1 fragment of Renilla luciferase, P19174
T2 chain: T1 sequence (P19174 790-851)

[4] = target: T2, PLCγ1-SH3 domain (aa 790-851) fused to …; assay: Renilla luciferase protein-fragment complementation assay in non-permeabilized HEK cells (CID-CD95-F2 / PLCγ1-SH3-F1), peptide 4 h; displaces CID-CD95

COc1ccc(-c2cc(=S)ss2)cc1 [anethole, 5-(4-methoxyphenyl)dithiole-3-thione]
effect on interaction of CD95 with PLCγ1 (CD95/PLCγ1 interaction): efficiently prevented | effect on endothelial transmigration of PBLs (activated PBLs): inhibited

COC(=O)N[C@H](C(=O)N[C@@H](Cc1ccccc1)[C@@H](O)CN(Cc1ccc(-c2ccccn2)cc1)NC(=O)[C@@H](NC(=O)OC)C(C)(C)C)C(C)(C)C [atazanavir]
effect on CD95-mediated Ca2+ signaling pathway in Th17 cells [1]: efficiently abrogated | effect on CD95-mediated Ca2+ signaling pathway in Tfh cells [2]: efficiently abrogated

CC(C)CN(C[C@@H](O)[C@H](Cc1ccccc1)NC(=O)O[C@H]1CO[C@H]2OCC[C@H]21)S(=O)(=O)c1ccc(N)cc1 [darunavir]
effect on CD95-mediated Ca2+ signaling pathway in Th17 cells [1]: efficiently abrogated | effect on CD95-mediated Ca2+ signaling pathway in Tfh cells [2]: efficiently abrogated

COc1cccc2c1C(=O)c1c(O)c3c(c(O)c1C2=O)C[C@@](O)(C(C)=O)C[C@@H]3O[C@H]1C[C@H](N)[C@H](O)[C@H](C)O1 [daunorubicin, (7S,9S)-9-acetyl-7-[(2R,4S,5S,6S)-4-amino-5-hydroxy-6-methyloxan-2-yl]oxy-6,9,11-trihydroxy-4-methoxy-8,10-dihydro-7H-tetracene-5,12-dione]
effect on interaction of CD95 with PLCγ1 (CD95/PLCγ1 interaction): efficiently prevented | effect on endothelial transmigration of PBLs (activated PBLs): inhibited

Cc1cccc(C)c1OCC(=O)N[C@@H](Cc1ccccc1)[C@@H](O)C[C@H](Cc1ccccc1)NC(=O)[C@H](C(C)C)N1CCCNC1=O [lopinavir]
effect on CD95-mediated Ca2+ signaling pathway in Th17 cells [1]: efficiently abrogated | effect on CD95-mediated Ca2+ signaling pathway in Tfh cells [2]: efficiently abrogated

CN(CCOc1ccc(CC2SC(=O)NC2=O)cc1)c1ccccn1 (stereo not shown) [rosiglitazone, 5-[[4-[2-[methyl(pyridin-2-yl)amino]ethoxy]phenyl]methyl]-1,3-thiazolidine-2,4-dione]
effect on interaction of CD95 with PLCγ1 (CD95/PLCγ1 interaction): efficiently prevented | effect on endothelial transmigration of PBLs (activated PBLs): inhibited

TAT-minCID: heptapeptide minCID (TCRKHRK, SEQ ID NO:1) fused with the cell-penetrating domain TAT (not fully specified; chains of the parent or of the whole protein)
IC50 (CD95/PLCγ1 interaction; PCA in HEK cells, peptides incubated for 4 hours, read-out: IC50, disruption of CD95/PLCγ1 interaction by peptides): 11.5 µM

KRKEVQKTCRKHRKENQGSHESPTLNPETVAINLSD (modifications not checked)
IC50 [3]: 10.8 µM

TCRKHRK (modifications not checked) [minCID (minimal CID, amino acids 182 to 188 of CD95, TCRKHRK)]
IC50 [4]: 35.5 µM

TCRKHRK (modifications not checked) [TAT-minCID (cell-penetrating domain TAT fused to minCID, TCRKHRK)]
IC50 [3]: 11.5 µM
